Data: paper PMC5613016, “GRL-09510, a Unique P2-Crown-Tetrahydrofuranylurethane -Containing HIV-1 Protease Inhibitor, Maintains Its Favorable Antiviral Activity against Highly-Drug-Resistant HIV-1 Variants in vitro” (Scientific Reports, 2017)

Legend:
Format in all cases: cell-based
HIV-1APV ^R 5μM = assay: p24 production inhibition in MT-4 cells
Protocol: (§1) The susceptibility of HIV-1LAI or HIV-2ROD to various compounds was determined as previously described[20]–[22]. Briefly, MT-2 cells (10^4/ml) were exposed to 100 TCID50 of HIV-1LAI or HIV-2ROD in the presence or absence of various concentrations of compounds in 96-well plates and were incubated at 37 °C for 7 days. After incubation, 100 μl of the medium was removed from each well, 3-(4,5-dimetylthiazol-2-yl)-2,5-diphenyltetrazolium bromide (MTT) solution (10 μl, 7.5 mg/ml in PBS) was added to each well, followed by incubation at 37 °C for 2 h. […] To determine the sensitivity of clinically isolated HIV-1s to compounds, PHA-PBMC (10^6/ml) were exposed to 50 TCID50 of each HIV-1 and cultured in the presence or absence of various concentrations of compounds in 10-fold serial dilutions in 96-well plates. In determining the drug-susceptibility of certain laboratory HIV-1 strains, MT-4 cells were employed as target cells as previously described[23],[24]. MT-4 cells (10^5/ml) were exposed to 100 TCID50 of drug-resistant HIV-1s in the presence or absence of various concentrations of compounds and were incubated at 37 °C. On day 7, the supernatants were harvested and the amounts of p24 were determined by using a fully-automated chemiluminescent enzyme immunoassay system (Lumipulse f: Fujirebio, Tokyo)[35]–[37]. […] All assays were performed in duplicate, and EC50 shown in this report represent average values of two to four independent experiments. PHA-PBMCs were derived from a single donor in each independent experiment. The research protocols described in the present study were carried out in accordance with relevant guidelines and regulations, and were approved in Ethics Committee for Epidemiological and General Research at the Faculty of Life Sciences, Kumamoto University.

HIV-1ATV ^R 5μM = assay: p24 production inhibition in MT-4 cells
Protocol: as §1

HIV-1LPV ^R 5μM = assay: p24 production inhibition in MT-4 cells
Protocol: as §1

HIV-1NL4-3 [1] = assay: p24 production inhibition in MT-4 cells; details: Human immunodeficiency virus 1, MT4, MT-4 cells
Protocol: as §1

HIV-1_9510 ^R 36P = assay: p24 production inhibition in MT-4 cells
Protocol: as §1

HIV-1NL4-3 [2] = assay: Viral growth kinetics in MT-4 cells (p24); details: as low as 0.01 µM, 7 days
Protocol: (§2) The GRL-09510-resistant variant at passage 36 was propagated in fresh MT-4 cells without GRL-09510 for 7 days, and aliquoted HIV-1_9510 ^R P36 viral stocks were stored at −80 °C. MT-4 cells (3.2 × 10^5) were exposed to the HIV-1_9510 ^R P36 or wild-type HIV-1NL4-3 preparation containing 10 ng/ml p24 in 6-well plates for 3 hours, and the infected MT-4 cells were washed with fresh medium, divided into 4 fractions and each cultured with or without GRL-09510 (final concentration of MT-4 cells 10^4/ml, and drug concentrations 0, 0.01, 0.1 and 1 μΜ). The amounts of p24 were measured every two days for up to 7 days.

HIV-1_9510 ^R P36 = assay: Viral growth kinetics in MT-4 cells (p24)
Protocol: as §2

[3] = number in parentheses, compared to HIV-1NL4-3

COc1ccc(S(=O)(=O)N(CC(C)C)CC(O)C(Cc2ccccc2)NC(=O)OC2C3COC4OCC2C4C3)cc1 (stereo not drawn) [GRL-09510]
fold change in EC50 HIV-1APVR5M (HIV-1APV ^R 5μM; compared to HIV-1NL4-3, Supplemental Table 4): 2
fold change of EC50 HIV-1APV ^R 5μM (HIV-1APV ^R 5μM; [3]): 2
EC50 (HIV-1APV ^R 5μM; read-out: EC50 HIV-1APV ^R 5μM, MT-4 cells, p24 Gag production): 4.8 ± 0.1 nM
fold change of EC50 HIV-1ATV ^R 5μM (HIV-1ATV ^R 5μM; [3]): 1
EC50 (HIV-1ATV ^R 5μM; read-out: EC50 HIV-1ATV ^R 5μM, MT-4 cells, p24 Gag production): 3.7 ± 0.9 nM
fold change of EC50 HIV-1LPV ^R 5μM (HIV-1LPV ^R 5μM; [3]): 1
EC50 (HIV-1LPV ^R 5μM; read-out: EC50 HIV-1LPV ^R 5μM, MT-4 cells, p24 Gag production): 3.9 ± 0.5 nM
EC50 (HIV-1NL4-3 [1]; p24 Gag production, Table 3): 2.8 ± 0.7 nM
EC50 (HIV-1NL4-3 [1]; p24 assay, Table 4, four to six independent experiments): 2.2 ± 0.9 nM
EC50 (HIV-1_9510 ^R 36P; Human immunodeficiency virus 1, MT4, MT-4 cells, p24 assay, read-out: EC50 HIV-1_9510 ^R 36P): 24 ± 2 nM
fold change of EC50 HIV-19510RP36 (HIV-1_9510 ^R 36P; compared to EC50 for HIV-1NL4-3, Supplemental Table 3): 11
fold change of EC50 HIV-1_9510 ^R 36P (HIV-1_9510 ^R 36P; compared to the value against HIV-1NL4-3): 11
growth of HIV-1NL4-3 in the presence of drug (HIV-1NL4-3 [2]): failed to grow
replication of HIV-1_9510 ^R P36 in the presence of drug (HIV-1_9510 ^R P36; 1 µM): completely suppressed
growth of HIV-1_9510 ^R P36 in the presence of drug (HIV-1_9510 ^R P36; 0.01 and 0.1 µM, 7-day culture): propagated
